Data: patent US5985908A, “MCBI analogs of CC-1065 and the duocarmycins” (The Scripps Research Institute, priority 1998, dated 1999)
Entries after “also recorded” stand apart in the source; their conditions may differ.

Columns and labels:
[1] = test system: w794 DNA (SV40 DNA fragment, 144 bp); assay: DNA alkylation, thermally-induced strand cleavage of w794 DNA; type: biochemical; settings: for selectivity and efficiency of DNA alkylation, unnatural enantiomers compared: 72 hours, pairwise comparison; for selectivity and efficiency of DNA alkylation, natural enantiomers compared: 25° C., 24 hours, 254 vs 2, 266 vs 1; for concentration of detectable DNA alkylation, natural enantiomers: w794, 25° C., 24 hours (FIG. 17); for concentration of detectable DNA alkylation, unnatural enantiomers: w794, 37° C., 72 hours (FIG. 13)
Procedure: FIG. 13 illustrates thermally-induced strand cleavage of double-stranded DNA (SV40 DNA fragment, 144 bp, nucleotide no. 5238-138, clone w794) after 72 hours incubation of agent-DNA at 37° C. followed by removal of unbound agent and 30 minutes incubation at 100° C.; 8% denaturing PAGE and autoradiography. Lane 1, control DNA; lanes 2-4, (-)-MCBI-TMI (254, 1×10^-5 to 1×10^-7 M); lanes 5-7, (-)-duocarmycin SA (2, 1×10^-5 to 1×10^-7 M); lanes 8-11, Sanger G, C, A and T reactions; lanes 12-14, (-)-CC-1065 (1, 1×10^-5 to 1×10^-7 M); lanes 15-17, (-)-MCBI-CDPI2 (266, 1×10^-5 to 1×10^-7 M); lanes 18-20, (-)-MCBI-CDPI1 (262, 1×10^-5 to 1×10^-7 M); lanes 21-23 (-)-MCBI-indole2 (258, 1×10^-5 to 1×10^-7 M).
As indicated, the DNA-agent incubation was conducted at 37° C. for 24 or 48 hours, followed by removal of unbound agent and 30 minutes incubation at 100° C.; 8% denaturing PAGE and autoradiography.
FIG. 17 illustrates thermally-induced strand cleavage of double-stranded DNA (SV40 DNA fragment, 144 bp, nucleotide no. 5238-138, clone w794) after 24 hours incubation of agent-DNA at 25° C. followed by removal of unbound agent and 30 minutes incubation at 100° C; 8% denaturing PAGE and autoradiography. Lane 1, control DNA; lanes 2-4, (+)-duocarmycin SA (2, 1×10^-5 to 1×10^-7 M); lanes 5-7, (+)-MCBI-TMI (254, 1×10^-5 to 1×10^-7 M); lanes 8-11, Sanger G, C, A and T reactions; lanes 12-14, (+)-CC-1065 (1, 1×10^-5 to 1×10^-7 M); lanes 15-17, (+)-MCBI-indole2 (258, 1×10^-5 to 1×10^-7 M); lanes 18-20, (+)-MCBI-CDPI2 (266, 1×10^-5 to 1×10^-7 M).
(§1) The DNA alkylation properties of the agents were examined within four 150 base-pair segments of duplex DNA for which comparative results are available for related agents. Four clones of phage M13mp10 were selected for study and contain the SV40 nucleosomal DNA inserts w794 (nucleotide no. 5238-138) and its complement w836 (nucleotide no. 5189-91) and c988 (nucleotide no. 4359-4210) and its complement c820 (nucleotide no. 4201-4356). The alkylation site identification and the assessment of the relative selectivity among the available sites were obtained by thermally-induced strand cleavage of the singly 5'end-labeled duplex DNA after exposure to the agents. Following treatment of the end-labeled duplex DNA with a range of agent concentrations, the unbound agent was removed by EtOH precipitation of the DNA. Redissolution of the DNA in aqueous buffer, thermolysis (100° C., 30 minutes) to induce strand cleavage at the sites of DNA alkylation, denaturing high resolution polyacrylamide gel electrophoresis (PAGE) adjacent to Sanger dideoxynucleotide sequencing standards, and autoradiography led to identification of the DNA cleavage and alkylation sites. The full details of this procedure have been disclosed and discussed elsewhere (10). The DNA alkylation reaction selectivities observed under the incubation conditions of 25° C. (24 hours) for the agents detailed herein have proven identical to the alkylation selectivities observed with shorter or extended reaction periods or when the reactions were conducted at different temperatures (37 or 4° C., 0.5-7 days). As discussed below, the rates and efficiencies but not final relative efficiencies of DNA alkylation were altered by changing the reaction temperatures.

[2] = test system: duplex DNA (w794, w836, c988, c820); assay: DNA alkylation selectivity within four 150 base-pair segments of duplex DNA; type: biochemical, SV40
Source text: as §1

L1210 = assay: In vitro cytotoxic activity; type: cell-based; settings: for enantiomer distinction (in words): natural vs unnatural enantiomer; for cytotoxic activity of seco precursor vs cyclopropane containing agent: seco precursors; for cytotoxic potency of natural enantiomer relative to unnatural enantiomer: fold, natural more potent than unnatural
[3] = pH 3; cited from earlier work
[4] = Solvolysis reactivity (UV), aqueous buffer-CH3OH; type: physicochemical
Procedure: The solvolysis was followed spectrophotometrically by UV with the disappearance of the long-wavelength absorption band of the MCBI chromophore ([…]) and with the appearance of a short-wavelength absorption band (266 nm) attributable to seco-N-BOC-MCBI (FIG. 9).
N-BOC-MCBI (238, 0.1 mg) was dissolved in CH3 OH (1.5 mL) and mixed with pH 3 aqueous buffer (1.5 mL). The buffer contained 4:1:20 (v:v:v) 0.1 M citric acid, 0.2 M Na2 HPO4, and H2 O, respectively. The solvolysis solution was sealed and kept at 25° C. protected from light. The UV spectrum was measured at regular intervals every 2 hours during the first day, every 12 hours for another week, and every 24 hours for an additional week. The decrease in the long-wavelength absorption at 324 nm and the increase in the short-wavelength absorption at 266 nm were monitored, FIG. 1.
Similarly, MCBI (240, 0.1 mg) was dissolved in CH3 OH (1.5 mL) and mixed with […] (1.5 mL). The solvolysis solution was sealed and stirred at 25° C. in the dark. The UV spectrum was recorded every 24 hours for two months. The decrease in the long-wavelength absorption at 340 nm and the increase in absorption at 268 nm were monitored, FIG. 1.

Compound: COC(=O)c1cc2c([nH]1)C(=O)C=C1N(C(=O)c3cc4cc(OC)c(OC)c(OC)c4[nH]3)CC3CC123 (single isomer, unassigned) [ent-(-)-duocarmycin SA, reference compound]
- selectivity and efficiency of DNA alkylation, unnatural enantiomers compared ([1]; 37° C.): slightly more effective

Compound: COc1c(O)c2c(c3cc(C(=O)N4CCc5c4c(O)c(OC)c4[nH]c(C(=O)N6C[C@H]7C[C@@]78C6=CC(=O)c6[nH]cc(C)c68)cc54)[nH]c13)CCN2C(N)=O [(+)-CC-1065, reference compound]
- selectivity and efficiency of DNA alkylation, natural enantiomers compared [1]: essentially indistinguishable
- concentration of detectable DNA alkylation, natural enantiomers [1]: 10^-7 M
- AT-rich alkylation selectivity, size of site, natural enantiomers [2]: 5 base-pair

Compound: COc1ccc2c(c1)[C@@]13C[C@@H]1CN(C(=O)c1cc4c5c(ccc4[nH]1)N(C(=O)c1cc4c6c(ccc4[nH]1)N(C(N)=O)CC6)CC5)C3=CC2=O [(+)-MCBI-CDPI2]
- selectivity and efficiency of DNA alkylation, natural enantiomers compared [1]: essentially indistinguishable
- concentration of detectable DNA alkylation, natural enantiomers [1]: 10^-7 M

Compound: COc1ccc2c(c1)[C@@]13C[C@@H]1CN(C(=O)c1cc4cc(NC(=O)c5cc6ccccc6[nH]5)ccc4[nH]1)C3=CC2=O [(+)-MCBI-indole2]
- concentration of detectable DNA alkylation, natural enantiomers [1]: 10^-7 M

Compound: COc1ccc2c(c1)[C@@]13C[C@@H]1CN(C(=O)OC(C)(C)C)C3=CC2=O [(+)-N-BOC-MCBI, N-(tert-Butyloxycarbonyl)-7-methoxy-1,2,9,9a-tetrahydrocyclopropa[c]benz[e]indol-4-one]
- relative efficiency of DNA alkylation, natural/unnatural enantiomer ([1]; (+)-N-BOC-MCBI/ent-(-)-N-BOC-MCBI, 37° C.): 1-2 ×
- enantiomer distinction (in words) (L1210): more potent activity

Compound: COc1ccc2c(c1)[C@]13C[C@H]1CN(C(=O)c1cc4c5c(ccc4[nH]1)N(C(N)=O)CC5)C3=CC2=O [(-)-MCBI-CDPI1]
- selectivity and efficiency of DNA alkylation, unnatural enantiomers compared ([1]; 37° C.): nearly indistinguishable

Compound: COc1ccc2c(c1)[C@]13C[C@H]1CN(C(=O)c1cc4c5c(ccc4[nH]1)N(C(=O)c1cc4c6c(ccc4[nH]1)N(C(N)=O)CC6)CC5)C3=CC2=O [(-)-MCBI-CDPI2]
- selectivity and efficiency of DNA alkylation, unnatural enantiomers compared ([1]; 37° C.): nearly indistinguishable

Compound: COc1ccc2c(c1)[C@]13C[C@H]1CN(C(=O)c1cc4cc(OC)c(OC)c(OC)c4[nH]1)C3=CC2=O [(-)-MCBI-TMI]
- selectivity and efficiency of DNA alkylation, unnatural enantiomers compared ([1]; 37° C.): nearly indistinguishable

Compound: COc1ccc2c(c1)[C@]13C[C@H]1CN(C(=O)c1cc4cc(NC(=O)c5cc6ccccc6[nH]5)ccc4[nH]1)C3=CC2=O [(-)-MCBI-indole2]
- selectivity and efficiency of DNA alkylation, unnatural enantiomers compared ([1]; 37° C.): nearly indistinguishable

Compound: O=C1C=C2NCC3CC23c2ccccc21 (stereo not shown) [CBI, 1,2,9,9a-tetrahydrocyclopropa[c]benz[e]indol-4-one]
- solvolysis half-life t1/2 of comparison agents [3]: 38.8 days
- solvolysis rate constant k of comparison agents [3]: 2.07e-07 s⁻¹

Compound: NC(=O)N1CCc2c1ccc1[nH]c(C(=O)N3CCc4c3ccc3[nH]c(C(=O)N5CC6CC67C5=CC(=O)c5ccccc57)cc43)cc21 (stereo not shown) [CBI-CDPI2, reference compound]
- enantiomer distinction (in words) (L1210): comparable potencies

Compound: COc1ccc2c(O)cc3c(c2c1)C(CCl)CN3C(=O)OC(C)(C)C (stereo not shown) [Compound 236, 3-(tert-Butyloxycarbonyl)-1-(chloromethyl)-5-hydroxy-8-methoxy-1,2-dihydro-3H-benz[e]indole]
- cytotoxic activity of seco precursor vs cyclopropane containing agent (L1210): indistinguishable

Compound: COc1ccc2c(c1)C13CC1CNC3=CC2=O (stereo not shown) [Compound 240, 7-Methoxy-1,2,9,9a-tetrahydrocyclopropa[c]benz[e]indol-4-one]
- acceleration of rate of solvolysis by C7 methoxy group vs. corresponding CBI agent ([4]; acid-catalyzed solvolysis, pH 3): 1.6 ×
- solvolysis rate constant k ([4]; pH 3, 50% CH3OH-buffer, 25° C.): 5.76e-07 s⁻¹
- half-life ([4]; pH 3, 50% CH3OH-buffer, 25° C., read-out: solvolysis half-life t1/2 (converted)): 13.9 days
- solvolysis reactivity relative to DSA ([4]; pH 3, more reactive than DSA): 6-7 ×
- relative solvolysis reactivity (in words) ([4]; pH 3, vs. agent named): only slightly more reactive than CBI; also recorded: less reactive than CPI

Compound: COc1ccc2c(O)cc3c(c2c1)C(CCl)CN3C(=O)c1cc2cc(OC)c(OC)c(OC)c2[nH]1 (stereo not shown) [Compound 252]
- cytotoxic activity of seco precursor vs cyclopropane containing agent (L1210): indistinguishable

Compound: COc1ccc2c(O)cc3c(c2c1)C(CCl)CN3C(=O)c1cc2cc(NC(=O)c3cc4ccccc4[nH]3)ccc2[nH]1 (stereo not shown) [Compound 256]
- cytotoxic activity of seco precursor vs cyclopropane containing agent (L1210): indistinguishable

Compound: COc1ccc2c(c1)C13CC1CN(C(=O)c1cc4cc(NC(=O)c5cc6ccccc6[nH]5)ccc4[nH]1)C3=CC2=O (stereo not shown) [Compound 258]
- concentration of detectable DNA alkylation, unnatural enantiomers [1]: 10^-6 to 10^-7 M
- cytotoxic potency of natural enantiomer relative to unnatural enantiomer (L1210): 1-3 ×
- enantiomer distinction (in words) (L1210): nearly equipotent

Compound: COc1ccc2c(O)cc3c(c2c1)C(CCl)CN3C(=O)c1cc2c3c(ccc2[nH]1)N(C(N)=O)CC3 (stereo not shown) [Compound 260]
- cytotoxic activity of seco precursor vs cyclopropane containing agent (L1210): indistinguishable

Compound: COc1ccc2c(c1)C13CC1CN(C(=O)c1cc4c5c(ccc4[nH]1)N(C(N)=O)CC5)C3=CC2=O (stereo not shown) [Compound 262]
- cytotoxic potency of natural enantiomer relative to unnatural enantiomer (L1210): 1-3 ×
- enantiomer distinction (in words) (L1210): essentially indistinguishable
- enantiomer distinction (in words) (L1210; listed as MCBI-CDPI1): nearly equipotent
- AT-rich alkylation selectivity, size of site, natural enantiomers [2]: 3.5 base-pair

Compound: COc1ccc2c(O)cc3c(c2c1)C(CCl)CN3C(=O)c1cc2c3c(ccc2[nH]1)N(C(=O)c1cc2c4c(ccc2[nH]1)N(C(N)=O)CC4)CC3 (stereo not shown) [Compound 264]
- cytotoxic activity of seco precursor vs cyclopropane containing agent (L1210): indistinguishable

Compound: COc1ccc2c(c1)C13CC1CN(C(=O)c1cc4c5c(ccc4[nH]1)N(C(=O)c1cc4c6c(ccc4[nH]1)N(C(N)=O)CC6)CC5)C3=CC2=O (stereo not shown) [Compound 266]
- concentration of detectable DNA alkylation, unnatural enantiomers [1]: 10^-6 to 10^-7 M
- cytotoxic potency of natural enantiomer relative to unnatural enantiomer (L1210): 1-3 ×
- enantiomer distinction (in words) (L1210): essentially indistinguishable
- enantiomer distinction (in words) (L1210; listed as MCBI-CDPI2): nearly equipotent

Compound: CC(C)(C)OC(=O)N1CC2CC23C1=CC(=O)c1ccccc13 (stereo not shown) [N-BOC-CBI]
- solvolysis half-life t1/2 of comparison agents [3]: 5.54 days

Compound: Cc1c[nH]c2c1C13CC1CN(C(=O)OC(C)(C)C)C3=CC2=O (stereo not shown) [N-BOC-CPI]
- solvolysis half-life t1/2 of comparison agents [3]: 1.53 days

Compound: COc1c(O)c2c(c3cc(C(=O)N4CCc5c4c(O)c(OC)c4[nH]c(C(=O)N6CC7CC78C6=CC(=O)c6[nH]cc(C)c68)cc54)[nH]c13)CCN2C(N)=O (stereo not drawn) [ent-(-)-CC-1065, reference compound]
- selectivity and efficiency of DNA alkylation, unnatural enantiomers compared ([1]; 37° C.): nearly indistinguishable
